In ChEMBL document CHEMBL5226369, “Tetracyclic Steroids Bearing a Bicyclo[4.4.1] Ring System as Potent Antiosteoporosis Agents from the Deep-Sea-Derived Fungus Rhizopus sp. W23” (J Nat Prod, 2023):
pIC50: −log10 of the molar value. The source made the active and inactive calls. No cut-off for these calls is given here.

Tests used:
A-431 = assay: Antiproliferative activity against human A-431 cells by MTT assay; assay type: functional, cell-based
A549 = assay: Antiproliferative activity against human A549 cells by MTT assay; assay type: functional, cell-based
MDA-MB-231 = assay: Antiproliferative activity against human MDA-MB-231 cells by MTT assay; assay type: functional, cell-based
MCF7 = assay: Antiproliferative activity against human MCF7 cells by MTT assay; assay type: functional, cell-based
PANC-1 = assay: Antiproliferative activity against human PANC-1 cells by MTT assay; assay type: functional, cell-based
HepG2 = assay: Antiproliferative activity against human HepG2 cells by MTT assay; assay type: functional, cell-based
HCT-116 = assay: Antiproliferative activity against human HCT-116 cells by MTT assay; assay type: functional, cell-based
NCI-H460 = assay: Antiproliferative activity against human NCI-H460 cells by MTT assay; assay type: functional, cell-based
NCI-H1299 = assay: Antiproliferative activity against human NCI-H1299 cells by MTT assay; assay type: functional, cell-based
[1] = Antiproliferative activity against human QGY-7701 cells by MTT assay; assay type: functional, cell-based; settings: QGY7701
BGC-823 = assay: Antiproliferative activity against human BGC-823 cells by MTT assay; assay type: functional, cell-based
[2] = Antiproliferative activity against human SKGT4 cells by MTT assay; assay type: functional, cell-based
A-375 = assay: Antiproliferative activity against human A-375 cells by MTT assay; assay type: functional, cell-based
U2OS = assay: Antiproliferative activity against human U2OS cells by MTT assay; assay type: functional, cell-based
HL-60 = assay: Antiproliferative activity against human HL-60 cells by MTT assay; assay type: functional, cell-based
K562 = assay: Antiproliferative activity against human K562 cells by MTT assay; assay type: functional, cell-based
KYSE-450 = assay: Antiproliferative activity against human KYSE-450 cells by MTT assay; assay type: functional, cell-based
PC-3 = assay: Antiproliferative activity against human PC-3 cells by MTT assay; assay type: functional, cell-based
BMSC [3] = assay: Anti-osteoporosis activity against C57BL/6J mouse BMSC cells assessed as increase in matrix mineralization of osteoblasts at 20 uM incubated for 14 days by Alizarin Red S staining based analysis; assay type: functional, cell-based; settings: time 14.0 day
[4] = (§1) Anti-osteoporosis activity against C57BL/6J mouse BMSC cells assessed as increase in osteogenic mineralization incubated for 14 days by Alizarin Red S staining based analysis; assay type: functional; settings: 336 h, time 14 day, read-out: MEC
BMSC [5] = assay: as §1; assay type: functional; settings: time 14.0 day
[6] = Inhibition of adipogenic differentiation in C57BL/6J mouse BMSC cells at 5 uM measured after 6 days by Oil Red O staining based light microscopy; assay type: functional; settings: 144 h, time 6 day

Row | pIC50 (A-431) | pIC50 (A549) | pIC50 (MDA-MB-231) | pIC50 (MCF7) | pIC50 (PANC-1) | pIC50 (HepG2) | pIC50 (HCT-116) | pIC50 (NCI-H460) | pIC50 (NCI-H1299) | pIC50 (BGC-823) | pIC50 (A-375) | pIC50 (U2OS) | pIC50 (HL-60) | pIC50 (K562) | pIC50 (PC-3) | SMILES | pIC50 [1] | pIC50 [2] | pIC50 (KYSE-450) | other results
1 | < 4.70 | < 4.70 | < 4.70 | < 4.70 | < 4.70 | < 4.70 | < 4.70 | < 4.70 | < 4.70 | < 4.70 | < 4.70 | < 4.70 | < 4.70 | < 4.70 | < 4.70 | C/C(=C\C(=O)C(C)O)[C@H]1CC[C@H]2C3=CC(=O)[C@H]4CC(=CC[C@H](O)C4)[C@H]3CC[C@]12C (some centres not stated) | < 4.70 | < 4.70 | < 4.70 | 
2 | < 4.70 | < 4.70 | < 4.70 | < 4.70 | < 4.70 | < 4.70 | < 4.70 | < 4.70 | < 4.70 | < 4.70 | < 4.70 | < 4.70 | < 4.70 | < 4.70 | < 4.70 | C/C(=C\[C@H](O)[C@@H](C)O)[C@H]1CC[C@H]2C3=CC(=O)[C@H]4CC(=CC[C@H](O)C4)[C@H]3CC[C@]12C | < 4.70 | < 4.70 | < 4.70 | 
3 | < 4.70 | < 4.70 | < 4.70 | < 4.70 | < 4.70 | < 4.70 | < 4.70 | < 4.70 | < 4.70 | < 4.70 | < 4.70 | < 4.70 | < 4.70 | < 4.70 | < 4.70 | COC(/C=C(\C)[C@H]1CC[C@H]2C3=CC(=O)[C@H]4CC(=CC[C@H](O)C4)[C@H]3CC[C@]12C)C(C)O (some centres not stated) | < 4.70 | < 4.70 | < 4.70 | 
4 | < 4.70 | < 4.70 | < 4.70 | < 4.70 | < 4.70 | < 4.70 | < 4.70 | < 4.70 | < 4.70 | < 4.70 | < 4.70 | < 4.70 | < 4.70 | < 4.70 | < 4.70 | C/C(=C\[C@H](O)[C@H](C)O)[C@H]1CC[C@H]2C3=CC(=O)[C@H]4CC(=CC[C@H](O)C4)[C@H]3CC[C@]12C [NEOCYCLOCITRINOL B] | < 4.70 | < 4.70 | < 4.70 | 
5 | < 4.70 | < 4.70 | < 4.70 | < 4.70 | < 4.70 | < 4.70 | < 4.70 | < 4.70 | < 4.70 | < 4.70 | < 4.70 | < 4.70 | < 4.70 | < 4.70 | < 4.70 | C/C(=C\[C@@H](O)[C@@H](C)O)[C@H]1CC[C@H]2C3=CC(=O)[C@H]4CC(=CC[C@H](O)C4)[C@H]3CC[C@]12C | < 4.70 | < 4.70 | < 4.70 | 
6 | < 4.70 | < 4.70 | < 4.70 | < 4.70 | < 4.70 | < 4.70 | < 4.70 | < 4.70 | < 4.70 | < 4.70 | < 4.70 | < 4.70 | < 4.70 | < 4.70 | < 4.70 | CO[C@H](/C=C(\C)[C@H]1CC[C@H]2C3=CC(=O)[C@H]4CC(=CC[C@H](O)C4)[C@H]3CC[C@]12C)[C@H](C)O | < 4.70 | < 4.70 | < 4.70 | 

Continued, compound first:

Row | SMILES | pIC50 (A-431) | pIC50 (A549) | pIC50 (MDA-MB-231) | pIC50 (MCF7) | pIC50 (PANC-1) | pIC50 (HepG2) | pIC50 (HCT-116) | pIC50 (NCI-H460) | pIC50 (NCI-H1299) | pIC50 (BGC-823) | pIC50 (A-375) | pIC50 (U2OS) | pIC50 (HL-60) | pIC50 (K562) | pIC50 (PC-3) | pIC50 [1] | pIC50 [2] | pIC50 (KYSE-450) | other results
7 | C/C(=C\C(=O)O)[C@H]1CC[C@H]2C3=CC(=O)[C@H]4CC(=CC[C@H](O)C4)[C@H]3CC[C@]12C | < 4.70 | < 4.70 | < 4.70 | < 4.70 | < 4.70 | < 4.70 | < 4.70 | < 4.70 | < 4.70 | < 4.70 | < 4.70 | < 4.70 | < 4.70 | < 4.70 | < 4.70 | < 4.70 | < 4.70 | < 4.70 | 
8 | CO[C@@H](/C=C(\C)[C@H]1CC[C@H]2C3=CC(=O)[C@H]4CC(=CC[C@H](O)C4)[C@H]3CC[C@]12C)[C@@H](C)O | < 4.70 | < 4.70 | < 4.70 | < 4.70 | < 4.70 | < 4.70 | < 4.70 | < 4.70 | < 4.70 | < 4.70 | < 4.70 | < 4.70 | < 4.70 | < 4.70 | < 4.70 | < 4.70 | < 4.70 | < 4.70 | 
9 | C/C=C/[C@H](OC(C)=O)[C@](C)(O)[C@H]1CC[C@H]2C3=CC(=O)[C@H]4CC(=CC[C@H](O)C4)[C@H]3CC[C@]12C | < 4.70 | < 4.70 | < 4.70 | < 4.70 | < 4.70 | < 4.70 | < 4.70 | < 4.70 | < 4.70 | < 4.70 | < 4.70 | < 4.70 | < 4.70 | < 4.70 | < 4.70 | < 4.70 | < 4.70 | < 4.70 | 
10 | C/C=C/[C@H](O)[C@](C)(O)[C@H]1CC[C@H]2C3=CC(=O)[C@H]4CC(=CC[C@H](O)C4)[C@H]3CC[C@]12C | < 4.70 | < 4.70 | < 4.70 | < 4.70 | < 4.70 | < 4.70 | < 4.70 | < 4.70 | < 4.70 | < 4.70 | < 4.70 | < 4.70 | < 4.70 | < 4.70 | < 4.70 | < 4.70 | < 4.70 | < 4.70 | 
11 | C/C(=C\[C@@H](O)[C@H](C)O)[C@H]1CC[C@H]2C3=CC(=O)[C@H]4CC(=CC[C@H](O)C4)[C@H]3CC[C@]12C [NEOCYCLOCITRINOL C] | < 4.70 | < 4.70 | < 4.70 | < 4.70 | < 4.70 | < 4.70 | < 4.70 | < 4.70 | < 4.70 | < 4.70 | < 4.70 | < 4.70 | < 4.70 | < 4.70 | < 4.70 | < 4.70 | < 4.70 | < 4.70 | Activity (BMSC [3]): Active; minimal effective concentration [4]: 5 µM; Activity (BMSC [5]): Dose-Dependent Effect; inhibition at 5 µM [6]: 78%
